Data from patent US5041441A, “Method of chemotherapy using 1-phenyl-2-decanoylamino-3-morpholino-1-propanol” (The Regents of the University of Michigan, priority 1988, dated 1991).

Columns and labels:
[1] = system: Ehrlich ascites tumor cells (EATC); assay: Antitumor activity in mice inoculated i.p. with Ehrlich ascites tumor cells; type: in vivo; conditions: for Median T/C ratio / Number of cured mice at 60 days / Number of cured mice at 90 days / Surviving at 60 days (cured mice and mice bearing a solid tumor) / Surviving at 90 days (cured mice and mice bearing a solid tumor): acetate salt i.p.; for Surviving at 10 days / Body weight change (mean, end of 10 days): mouse, in vivo, ip
Procedure: Male mice of the ICR (Swiss Hsd) strain from Harlan--Sprague Dawley (Indianapolis, Ind.) were injected intraperitoneal with saline containing 2×10^6 Ehrlich ascites tumor cells (EATC) on day 0. […] Treatment began 24 hours later with intraperitoneal injections of saline or inhibitor, either as the acetate salt or as the hydrochloride salt. The inhibitor was dissolved in 40° C. saline and injected at 10 μl/g body weight. In the case of drugs that were difficult to dissolve, e.g. the hydrochlorides, a non-ionic, low toxicity detergent was included to emulsify the drug, making it suitable for injection. Two cages of mice were assigned to each control or experimental group and fed standard lab chow. In almost all cases, the mice were injected daily for a total of 10 doses.
The 1-tailed Student t-test for unpaired samples was used for statistical analysis.
The experimental procedure set forth above was again followed with homologs of PDMP made from fatty acids of 10 to 18 carbon atom length. The compounds were not resolved into D- and L-forms but the threo stereomers were used as the hydrochlorides. All samples were emulsified in Myrj 52 (15 mg/kg).

Ehrlich ascites cells = assay: Growth of Ehrlich ascites cells in vivo (volume of packed cells); conditions: treatment begun 3 days after EATC inoculation, 5 injections, killed 1 day later; 100 mg/kg
Procedure: A suspension of GlcCer was injected into one group of 10 mice inoculated 1 day earlier with EATC as before. Injectable suspensions of GlcCer and galactosylceramide (GalCer) were prepared by mechanical grinding in saline (10 mg/ml) and injected at a dosage of 100 mg/kg. In one experiment, the mice were killed 1 day after the last of eight daily injections and the ascites cells were flushed out of the abdomen with buffered saline and washed.
Treatments were begun 3 days after EATC inoculation. Only 5 injections were given and the mice were killed 1 day later.

EATC [2] = assay: Rechallenge of surviving treated mice with EATC; type: in vivo
Text: Four mice who had survived 63 days post-inoculation were challenged with another 2×10^6 EATC. […] Normal mice of this age, like the younger ones, are readily attacked by EATC. We conclude that the mice have, in effect, been "live-cell vaccinated" with EATC plus PDMP.

EATC [3] = assay: D-threo-PDMP with detergents (Myrj 52 or Pluronic F68) in mice; type: in vivo; conditions: for Number of apparently cured mice at 60 days: 8 mice
Procedure: Male mice of the ICR (Swiss Hsd) strain from Harlan--Sprague Dawley (Indianapolis, Ind.) were injected intraperitoneal with saline containing 2×10^6 Ehrlich ascites tumor cells (EATC) on day 0. Each cage contained 4 or 5 mice which had been weight matched by a computer program for similar means (about 25 g) and similar standard deviations. Treatment began 24 hours later with intraperitoneal injections of saline or inhibitor, either as the acetate salt or as the hydrochloride salt. The inhibitor was dissolved in 40° C. saline and injected at 10 μl/g body weight. In the case of drugs that were difficult to dissolve, e.g. the hydrochlorides, a non-ionic, low toxicity detergent was included to emulsify the drug, making it suitable for injection. Two cages of mice were assigned to each control or experimental group and fed standard lab chow. In almost all cases, the mice were injected daily for a total of 10 doses.
Four groups of mice (8 per group) were injected once a day for 10 d with 120 mg/kg of D-threo-PDMP and 60 or 180 mg/kg of Myrj 52 or Pluronic F68. No deaths occurred in these mice by 10 days and, at 60 days, the number of apparently cured mice was 2 and 3 for the two Myrj groups and 1 and 3 for the two Pluronic groups.

[4] = molecular target: T1, glucosyltransferase (microsomes from normal liver) (Mus musculus, UniProt O88693); assay: Glucosyltransferase assay, microsomes from normal liver; type: biochemical
T1 construct: The microsomes from normal liver (72 μg protein) required 5 μM D-threo-PDMP; from tissue; host or cells: normal liver microsomes, ICR Swiss mice
T1 sequence (O88693 1-394): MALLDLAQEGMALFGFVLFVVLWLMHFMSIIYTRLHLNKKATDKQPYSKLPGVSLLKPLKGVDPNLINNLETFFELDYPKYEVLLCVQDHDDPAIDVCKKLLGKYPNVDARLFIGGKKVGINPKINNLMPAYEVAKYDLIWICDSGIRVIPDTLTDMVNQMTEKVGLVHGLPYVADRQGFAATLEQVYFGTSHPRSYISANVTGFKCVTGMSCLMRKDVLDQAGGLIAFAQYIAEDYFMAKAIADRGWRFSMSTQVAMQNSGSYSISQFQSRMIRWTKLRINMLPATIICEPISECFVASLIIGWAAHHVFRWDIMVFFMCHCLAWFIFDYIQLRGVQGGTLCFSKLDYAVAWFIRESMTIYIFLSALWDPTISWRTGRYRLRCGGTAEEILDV
Procedure: (§1) Evidence that D-threo-PDMP acts to inhibit GlcCer biosynthesis was provided as follows from assay of glucosyltransferase. Microsomes as source of enzyme were prepared by highspeed centrifugation and stored at -70° C. before use. The incubations were at 37° C. for 30 minutes with microsomes, ATP, liposomal octanoyl sphingosine, UDP-[^3 H]glu, Mg^2+, and dithioerythritol. Microsomes from EATC (0.50 mg protein) required 20 μM PDMP to reduce the glucosyltransferase activity in half. The microsomes from normal liver (72 μg protein) required 5 μM D-threo-PDMP. While the EATC enzyme seems to be less sensitive to the inhibitor, the intraperitoneal concentration of inhibitor is initially very high.
Our tentative conclusion is that these cells obtain much of their GlcCer from the peritoneum. Thus, the effectiveness of the drug can tentatively be ascribed to a blockage of GlcCer synthesis by both the host and tumor cells.

[5] = molecular target: T2, glucosyltransferase (EATC enzyme) (Mus musculus, UniProt O88693); assay: Glucosyltransferase assay, microsomes from EATC; type: biochemical
T2 construct: Microsomes from EATC (0.50 mg protein) required 20 μM PDMP to reduce the glucosyltransferase activity in half; endogenous in cells; host or cells: Ehrlich ascites tumor cells (EATC), microsomes
T2 sequence (O88693 1-394): T1 sequence (O88693 1-394)
Procedure: as §1

[6] = 2 × 250 mg/kg/day, days 1-5, 1 × 150, days 6-10

CCCCCCCCCC(=O)N[C@H](CN1CCOCC1)[C@H](O)c1ccccc1 [D-threo-PDMP, 1-Phenyl-2-Decanoylamino-3-Morpholino-1-Propanol]
Median T/C ratio ([1]; 1 × 100 mg/kg/day, days 1-10): 191%
Number of cured mice at 60 days ([1]; 1 × 100 mg/kg/day, days 1-10): 4
Number of cured mice at 90 days ([1]; 1 × 100 mg/kg/day, days 1-10): 4
Surviving at 60 days (cured mice and mice bearing a solid tumor) ([1]; 1 × 100 mg/kg/day, days 1-10): 7
Surviving at 90 days (cured mice and mice bearing a solid tumor) ([1]; 1 × 100 mg/kg/day, days 1-10, mice with solid tumors killed before 90 days): 4
Median T/C ratio ([1]; 1 × 150 mg/kg/day, days 1-10): 319%
Number of cured mice at 60 days ([1]; 1 × 150 mg/kg/day, days 1-10): 3
Number of cured mice at 90 days ([1]; 1 × 150 mg/kg/day, days 1-10): 3
Surviving at 60 days (cured mice and mice bearing a solid tumor) ([1]; 1 × 150 mg/kg/day, days 1-10): 7
Surviving at 90 days (cured mice and mice bearing a solid tumor) ([1]; 1 × 150 mg/kg/day, days 1-10): 5
Median T/C ratio ([1]; 2 × 100 mg/kg/day, days 1-5): 238%
Number of cured mice at 60 days ([1]; 2 × 100 mg/kg/day, days 1-5): 3
Number of cured mice at 90 days ([1]; 2 × 100 mg/kg/day, days 1-5): 3
Surviving at 60 days (cured mice and mice bearing a solid tumor) ([1]; 2 × 100 mg/kg/day, days 1-5): 5
Surviving at 90 days (cured mice and mice bearing a solid tumor) ([1]; 2 × 100 mg/kg/day, days 1-5, mice with solid tumors killed before 90 days): 3
Median T/C ratio [1, 6]: 150%
Number of cured mice at 60 days [1, 6]: 3
Number of cured mice at 90 days [1, 6]: 3
Surviving at 60 days (cured mice and mice bearing a solid tumor) [1, 6]: 5
Surviving at 90 days (cured mice and mice bearing a solid tumor) [1, 6]: 5
Percentage surviving for 60 days ([1]; dose response test, 75 mg/kg): 10%
Percentage surviving for 60 days ([1]; dose response test, 100 mg/kg): 20%
Percentage surviving for 60 days ([1]; dose response test, 125 mg/kg): 50%
Time of death compared with controls ([1]; dose response test, 25 or 50 mg/kg): died at about the same time as the controls
Mice still alive and healthy more than 5 months after inoculation ([1]; dose response test, two most-heavily dosed groups): 40%
Surviving at 10 days ([1]; 100 mg/kg/day): 10/10
Body weight change (mean, end of 10 days) ([1]; 150 mg/kg/day): -0.36 g
Surviving at 10 days ([1]; 150 mg/kg/day): 10/10
Body weight change (mean, end of 10 days) ([1]; 250 mg/kg/day): -3.49 g
Surviving at 10 days ([1]; 250 mg/kg/day): 8/9
Mice completely cured ([1]; variety of regimens): About 30%
Volume of packed cells (Ehrlich ascites cells): 1.68 ± 0.86 ml/mouse
Volume of packed cells, % of controls (Ehrlich ascites cells): 62 % of controls
Survivors developing no EATC after challenge (EATC [2]; five survivors challenged 135 and 100 days after inoculation, greater than 5 months of observation): four of them developed no EATC
Effect of reinoculation with 2×10^6 EATC (EATC [2]; four mice surviving 63 days post-inoculation, observed greater than 7 months more): no effects of the reinoculation
Number of apparently cured mice at 60 days (EATC [3]; 120 mg/kg for 10 d with Myrj 52, first group (60 mg/kg)): 2
Number of apparently cured mice at 60 days (EATC [3]; 120 mg/kg for 10 d with Myrj 52, second group (180 mg/kg)): 3
Number of apparently cured mice at 60 days (EATC [3]; 120 mg/kg for 10 d with Pluronic F68, first group (60 mg/kg)): 1
Number of apparently cured mice at 60 days (EATC [3]; 120 mg/kg for 10 d with Pluronic F68, second group (180 mg/kg)): 3
Deaths by 10 days (EATC [3]; 120 mg/kg once a day for 10 d with 60 or 180 mg/kg of Myrj 52 or Pluronic F68, 8 per group): No deaths
IC50 [4]: 5 µM
IC50 [5]: 20 µM
